In the SangsterLogP compilation:

logP	Compound
4.77	CCCCCCCCCCCCN(C)N=Nc1ccc(C(=O)O)cc1
4.15	CCCCCCCN(C)/N=N/c1ccc(C(N)=O)cc1
2.37	CCCCCCCN(C)N=Nc1ccc(C(=O)O)cc1
6.58	CCCCCCCCCCCCN(C)N=Nc1ccc(C(N)=O)cc1
3.59	CCCCCCN(C)N=Nc1ccc(C(N)=O)cc1
2.96	CCCCCCCCN(C)N=Nc1ccc(C(=O)O)cc1

Second part, the molecule before the results:

Compound	logP
C=CCN(C)N=Nc1ccc(C(=O)O)cc1	0.38
CCN(C)N=Nc1ccc(C(=O)O)cc1	0.03
CN(CCO)/N=N/c1ccc(C(N)=O)cc1	0.26
CN(C)/N=N/c1ccc(C(=O)O)cc1	-0.29
CN(O)N=Nc1ccc(C(N)=O)cc1	-0.22
CCCCCCCCCCCCCCCCCCN(C)N=Nc1ccc(C(=O)O)cc1	7.6
CC(C)N(C)N=Nc1ccc(C(=O)O)cc1	0.42
CN(Cc1ccccc1)N=Nc1ccc(C(=O)O)cc1	0.94
CN(C)/N=N/c1ccc(C(N)=O)cc1	1.17
C#CCN(C)N=Nc1ccc(C(=O)O)cc1	-0.13
